Experimental data as given in patent publication US20090155784A1, “ASSESSMENT OF ASTHMA AND ALLERGEN-DEPENDENT GENE EXPRESSION” (Wyeth, priority 2007, published 2009).

Columns and labels:
[1] = tested on: PBMCs from asthma subjects; assay: HG-U133A baseline gene expression in PBMCs of asthma subjects (AOS), cPLA2 inhibitor in the absence of allergen (no AG); format: cell-based, human
Description: PBMCs were stimulated in vitro with a cocktail containing 4 different allergens from house dust mite, ragweed and cat. Recombinant allergens, Der p1, Der f2, Fel d1 (Indoor Biotech, Charlottesville, Va.) and natural ragweed allergen (Allergy Lab, Seattle, Wash.) were selected and screened for endotoxin contamination (LAL Endotoxin Test, Catalog #HIT302, sensitivity, 0.0001 Eu/ml, Cell Sciences, Canton, Mass.). The sensitivity of the subjects was unknown but the allergens were chosen based on the estimate that 80% of allergic individuals are believed to react to one or more of these allergens. Culture medium contained RPMI-1640 (Sigma) with 10% heat inactivated FCS (Sigma St. Louis, Mo.) and 100 unit/mL Penicillin and […] Streptomycin and 0.292 mg/mL Glutamine (GIBCO RL Invitrogen, Carlsbad, Calif.). The final allergen cocktail concentrations in culture medium were: Der p1 and Der f2 (dust mite), 1 mg/ml; Fel d1 (cat), 1.25 mg/ml; ragweed, 125 mg/ml. […]
RNA was purified using QIA shredders and Rneasy mini kits (Qiagen, Valencia, Calif.). […] Eluted RNA was quantified using a Spectramax96 well plate UV reader (Molecular Devices, Sunnyvale, Calif., USA) monitoring A260/280 OD values. The quality of each RNA sample was assessed by capillary electrophoresis alongside an RNA molecular weight ladder on the Agilent 2100 bioanalyzer (Agilent Technologies, Palo Alto, Calif., USA). […]

[2] = tested on: human whole blood; assay: human whole blood assay verifying inhibitory activity of the inhibitor samples; format: cell-based
[3] = tested on: PBMCs from asthma subjects; assay: HG-U133A transcriptional profiling of allergen-stimulated PBMCs of asthma subjects (AOS), with and without cPLA2 inhibitor, 6 days culture; clustering and Ingenuity pathway analysis; format: cell-based, human
Description: PBMCs were stimulated in vitro with a cocktail containing 4 different allergens from house dust mite, ragweed and cat. Recombinant allergens, Der p1, Der f2, Fel d1 (Indoor Biotech, Charlottesville, Va.) and natural ragweed allergen (Allergy Lab, Seattle, Wash.) were selected and screened for endotoxin contamination (LAL Endotoxin Test, Catalog #HIT302, sensitivity, 0.0001 Eu/ml, Cell Sciences, Canton, Mass.). The sensitivity of the subjects was unknown but the allergens were chosen based on the estimate that 80% of allergic individuals are believed to react to one or more of these allergens. Culture medium contained RPMI-1640 (Sigma) with 10% heat inactivated FCS (Sigma St. Louis, Mo.) and 100 unit/mL Penicillin and […] Streptomycin and 0.292 mg/mL Glutamine (GIBCO RL Invitrogen, Carlsbad, Calif.). The final allergen cocktail concentrations in culture medium were: Der p1 and Der f2 (dust mite), 1 mg/ml; Fel d1 (cat), 1.25 mg/ml; ragweed, 125 mg/ml. The total level of endotoxin contamination in culture medium was 0.057 Eu/ml. The cPLA2 inhibitor 4-{3-[1-benzhydryl-5-chloro-2-(2-{[(2,6-dimethylbenzyl)sulfonyl]amino}ethyl)-1H-indol-3-yl]propyl}benzoic acid was used at a concentration of 0.3 μM/ml. Zileuton, a 5-lipoxygenase inhibitor, was added at a concentration of 5 μM. The inhibitory activity of both the cPLA2 inhibitor and Zileuton samples were verified in a human whole blood assay. After 6 days in culture approximately 200 μL of supernatant was removed using an 8-channel pipettor without disturbing the cell pellet and placed into a collection plate for cytokine ELISA assays. To the remaining cell pellet 100 μL of RLT lysis buffer containing 1% beta-mercaptoethanol was added and snap frozen for RNA purification.
RNA was purified using QIA shredders and Rneasy mini kits (Qiagen, Valencia, Calif.). PBMC pellets frozen in RLT lysis buffer containing 1% β-mercaptoethanol were thawed and processed for total RNA isolation using the QIA shredder and RNeasy mini kit. A phenol:chloroform extraction was then performed, and the RNA was repurified using the RNeasy mini kit reagents. Eluted RNA was quantified using a Spectramax96 well plate UV reader (Molecular Devices, Sunnyvale, Calif., USA) monitoring A260/280 OD values. The quality of each RNA sample was assessed by capillary electrophoresis alongside an RNA molecular weight ladder on the Agilent 2100 bioanalyzer (Agilent Technologies, Palo Alto, Calif., USA). RNA samples were assigned quality values of intact (distinct 18S and 28S bands); partially degraded (discernible 18S and 28S bands with presence of low molecular weight bands) or completely degraded (no discernible 18S and 28S bands).
Labeled targets for oligonucleotide arrays were prepared using a modification of the procedure described by Lockhart et al. (Lockhart (1996) Nat. Biotechnol. 14:1675-80). Labeled targets were hybridized to the HG-U133A Affymetrix GeneChip Array as described in the Affymetrix technical manual. Eleven biotinylated control transcripts ranging in abundance from 3 parts per million (ppm) to 100 ppm were spiked into each sample to function as a standard curve (Hill (2001) Genome Biol. 2:RESEARCH0055). GeneChip MAS 5.0 software was used to evaluate the hybridization intensity, compute the signal value for each probe set and make an absent/present call.
GeneChips were required to pass the pre-set quality control criteria that the RNA quality metric required a 5′:3′ ratio. Two asthma subjects were excluded from the study due to failure to meet the RNA quality metric and 2 GeneChips from the group treated with cPLA2a inhibitor were excluded for the same reason. The signal value for each probe set was converted into a frequency value representative of the number of transcripts present in 10^6 transcripts by reference to the standard curve (Hill (2001) Genome Biol. 2:RESEARCH0055). […]

With Cc1cccc(C)c1CS(=O)(=O)NCCc1c(CCCc2ccc(C(=O)O)cc2)c2cc(Cl)ccc2n1C(c1ccccc1)c1ccccc1 [cPLA2 inhibitor, 4-{3-[1-benzhydryl-5-chloro-2-(2-{[(2,6-dimethylbenzyl)sulfonyl]amino}ethyl)-1H-indol-3-yl]propyl}benzoic acid] the “effect on gene expression in the absence of allergen stimulation, asthmatic population” value [1] was “does not affect gene expression”, the “inhibitory activity in a human whole blood assay” value [2] was “verified” and the “all T cell responsive and cell cycle genes in the pathway (Network 1, FIG. 3A/3C)” value ([3]; allergen + inhibitor) was “significantly changed towards the levels in the healthy subject group”. For the same compound, the “allergen-induced increase in expression of T cell genes ZAP70, CD28, CD3D” value ([3]; allergen + inhibitor) was “abolished”, the “genes initially down regulated in asthma samples in the presence of allergen, such as sialoadhesin (SN), CD84, TIMP3” value ([3]; allergen + inhibitor) was “up-regulated in the presence of inhibition” and the “genes up-regulated in asthma samples in response to allergen, such as ZAP70, LCK, MCM2” value ([3]; allergen + inhibitor) was “reduced to the levels seen in the allergen treated healthy controls”. For the same compound, the “other immune related genes: CD28, CD3D, IL-21R, HMGB1” value ([3]; allergen + inhibitor) was “downregulated”, the “every single probe in Network 1 in the asthmatic population” value ([3]; allergen + inhibitor, FIG. 3C) was “altered level of expression” and the “asthma specific gene expression (167 allergen-asthma specific probesets) in the presence of the inhibitor” value ([3]; compared to the allergen treatment alone, 0.3 μM/ml) was “altered”. For the same compound, the “Fold Change AOS Allergen vs. cPLA2 inhibitor” value ([3]; gene C10ORF3, probeset 218542_at) was −1.255, the “Fold Change AOS Allergen vs. cPLA2 inhibitor” value ([3]; gene CDC2, probeset 203213_at) was −1.163 and the “Fold Change AOS Allergen vs. cPLA2 inhibitor” value ([3]; gene CHIT1, probeset 208168_s_at) was 2.803. The “Fold Change AOS Allergen vs. cPLA2 inhibitor” value ([3]; gene DAB2, probeset 201279_s_at) was 2.442, the “Fold Change AOS Allergen vs. cPLA2 inhibitor” value ([3]; gene DAB2, probeset 210757_x_at) was 2.524 and the “Fold Change AOS Allergen vs. cPLA2 inhibitor” value ([3]; gene DUSP4, probeset 204014_at) was −1.393. The “Fold Change AOS Allergen vs. cPLA2 inhibitor” value ([3]; gene DUSP4, probeset 204015_s_at) was −1.344, the “Fold Change AOS Allergen vs. cPLA2 inhibitor” value ([3]; gene FABP3, probeset 205738_s_at) was 2.574 and the “Fold Change AOS Allergen vs. cPLA2 inhibitor” value ([3]; gene FLJ23311, probeset 219990_at) was −1.362. For the same compound, the “Fold Change AOS Allergen vs. cPLA2 inhibitor” value ([3]; gene GM2A, probeset 33646_g_at) was 2.499, the “Fold Change AOS Allergen vs. cPLA2 inhibitor” value ([3]; gene GM2A, probeset 209727_at) was 2.415 and the “Fold Change AOS Allergen vs. cPLA2 inhibitor” value ([3]; gene HS3ST2, probeset 219697_at) was 4.363. The “Fold Change AOS Allergen vs. cPLA2 inhibitor” value ([3]; gene ME1, probeset 204059_s_at) was 2.986, the “Fold Change AOS Allergen vs. cPLA2 inhibitor” value ([3]; gene MELK, probeset 204825_at) was −1.228 and the “Fold Change AOS Allergen vs. cPLA2 inhibitor” value ([3]; gene OIP5, probeset 213599_at) was −1.141. The “Fold Change AOS Allergen vs. cPLA2 inhibitor” value ([3]; gene PAPSS2, probeset 203060_s_at) was 2.162, the “Fold Change AOS Allergen vs. cPLA2 inhibitor” value ([3]; gene PLEKHB2, probeset 201411_s_at) was 2.51 and the “Fold Change AOS Allergen vs. cPLA2 inhibitor” value ([3]; gene POLG, probeset 213007_at) was −1.163. For the same compound, the “Fold Change AOS Allergen vs. cPLA2 inhibitor” value ([3]; gene RACGAP1, probeset 222077_s_at) was −1.167, the “Fold Change AOS Allergen vs. cPLA2 inhibitor” value ([3]; gene RUVBL1, probeset 201614_s_at) was −1.215 and the “Fold Change AOS Allergen vs. cPLA2 inhibitor” value ([3]; gene SLC36A1, probeset 213119_at) was 2.385. For the same compound, the “Fold Change AOS Allergen vs. cPLA2 inhibitor” value ([3]; gene SLC38A6, probeset 214830_at) was 2.908, the “Fold Change AOS Allergen vs. cPLA2 inhibitor” value ([3]; gene SLC39A14, probeset 212110_at) was −1.323 and the “Fold Change AOS Allergen vs. cPLA2 inhibitor” value ([3]; gene SLCO2B1, probeset 203472_s_at) was 2.698. For the same compound, the “Fold Change AOS Allergen vs. cPLA2 inhibitor” value ([3]; gene SLCO2B1, probeset 203473_at) was 2.609, the “Fold Change AOS Allergen vs. cPLA2 inhibitor” value ([3]; gene SMC2L1, probeset 204240_s_at) was −1.245 and the “Fold Change AOS Allergen vs. cPLA2 inhibitor” value ([3]; gene SN, probeset 219519_s_at) was 4.378. For the same compound, the “Fold Change AOS Allergen vs. cPLA2 inhibitor” value ([3]; gene TRIP13, probeset 204033_at) was −1.358, the “Fold Change AOS Allergen vs. cPLA2 inhibitor” value ([3]; gene UNK_AI859865, probeset 222036_s_at) was −1.203 and the “Fold Change AOS Allergen vs. cPLA2 inhibitor” value ([3]; gene UNK_BE966236, probeset 201890_at) was −1.167.
